One data set deals with human liver. To be noted: in vivo, cited from earlier work.
The test system of the next data set is rats. To be noted: bosentan-treated rats; cited from earlier work.
The subject of data set [1] is clinical trial participants. To be noted: of 15 clinical trial participants; cited from earlier work.
For data set [2], the system named is mice, rats, dogs and primates. The conditions noted are these: cited from earlier work.
The subject of another data set is rat liver. In words: Serum ALT after GCV in neonatal rats given rAAV-PB-HSVtk and rAAV-PBo. In kind it is in vivo. To be noted: 50 mg/kg GCV, 2 injections 2 days apart, 2 weeks after rAAV-PB-HSVtk and rAAV-PBo (5e10 vector genomes each); serum one week later. Here is the method: 20% targeted delivery is insufficient to induce desirable liver damage with ganciclovir (GCV). Three day old neonatal rats were injected with 5e10 vector genomes each of rAAV-PB-HSVtk and rAAV-PBo per animal. Due to the stable integration and expression of suicide gene HSVtk mediated by piggyBac transposon multiple injections of ganciclovir (GCV) can be administered over a prolonged period of time. 2 weeks later, each animal was injected with 50 mg/kg GCV (2 injections, 2 days apart). One week later blood serum was collected and analyzed for elevated ALT levels, which is indicative of liver damage. […] ALT levels in the 200-300 range in desirable prior to transplantation of human hepatocytes.

Where two headings read alike, the source gives them in different places.

`COc1ccccc1Oc1c(NS(=O)(=O)c2ccc(C(C)(C)C)cc2)nc(-c2ncccn2)nc1OCCO` [Bosentan]: the human-specific hepatotoxicity result in the data set on human liver was “causes hepatotoxicity in a human-specific manner”; with human liver (listed as Bosetan), “known to cause human-specific hepatotoxicity”. The hepatotoxicity in rats result with rats is “do not develop hepatotoxicity”.

Consider `O=c1[nH]c(=O)n([C@@H]2O[C@H](CO)[C@@H](O)[C@@H]2F)cc1I` [FIAU], for which, in data set [1], the “participants who developed acute liver failure” value was “seven”, the participants who died entry is listed as “five” and the “participants who required a liver transplant” value is on record as “two”. Further, in the data set with human liver, the human-specific hepatotoxicity result is on record as “known to cause human-specific hepatotoxicity”. In addition, the “outcome of preclinical toxicology studies” value in data set [2] is on record as “cleared all preclinical toxicology studies”.

`Nc1nc(O)c2ncn(COC(CO)CO)c2n1` [GCV, ganciclovir]: in the data set on rat liver, the “serum ALT levels (liver damage)” value was “normal ALT levels”.

Source of the values: US20170112108A1, “GENETICALLY MODIFIED NON-HUMAN MAMMALS HAVING MODIFIED LIVER CELLS AND/OR TISSUE AND METHODS OF MAKING SAME” (priority 2015, published 2017).
